# Test results from patent US20210346317A1, “TREATMENT OF HEMATOPOIETIC STEM CELL TRANSPLANT PATIENTS” (PRIOTHERA LIMITED, priority 2016, published 2021).
# Legend:
# [1] = test system: Recipient C57BL/6 or IDUAKI (B6.129S-Iduatm1.1Kmke/J) mice; assay: Mouse model of inherited metabolic disease (IMD): HSC engraftment after mild non-myeloablative conditioning; assay type: in vivo
# Description: Recipient C57BL/6 or IDUAKI (B6.129S-Iduatm1.1Kmke/J) mice were conditioned with a mild non-myeloablative regimen. A limited number of 1×10E3 HSC were transplanted from congenic mice. Groups were either untreated or treated with KRP for 15 days.
# patients undergoing HSCT = assay: Neutrophil engraftment in patients after allogeneic hematopoietic stem cell transplantation; assay type: in vivo; conditions: for neutrophil count above baseline: e.g. 2 mg KRP203/per day
# Description: Day 1=drug treatment commences (e.g. 2 mg KRP203/per day)
# Day 2 and Day 10: Conditioning was performed as described above (e.g. Mini Seattle or RIC)
# Day 11: transplantation of stem cells from an allogeneic donor is being carried out
# To monitor for engraftment of donor hematopoietic stem cells in recipients, the neutrophil count is measured usually daily. The commonly accepted definition of “day of engraftment” (take) is the first of three consecutive days with a neutrophil count higher than 500 cells per microliter. A neutrophil count of higher than 500 cells per microliter is reached in the below experiment, when the probability of engraftment is 1.0 (100%) versus baseline or higher. The donor origin of these cells is normally confirmed by genomic analyses on day 30.
# [2] = day 56, 1×10E3 HSC from congenic mice, treated for 15 days, vs untreated group
structure (smiles),measurement,setting,value
"NC(CO)(CO)CCc1ccc(Sc2cccc(OCc3ccccc3)c2)cc1Cl [KRP203, 2-amino-2-[4-(3-benzyloxyphenylthio)-2-chlorophenyl]ethyl-propane-1,3-diol]",donor cells in engrafted mice,[1]; [2],more donor cells than the untreated group
same,mice engrafted,[1]; [2],More mice from the KRP203 treated group engrafted
same,engraftment (conclusion),"[1]; non-myeloablative conditions, limited HSC, treatment in the peri-transplant period",augments engraftment
same,Probability of neutrophil engraftment,patients undergoing HSCT; Day 0,0.00
same,Probability of neutrophil engraftment,patients undergoing HSCT; Day 10,0.00
same,Probability of neutrophil engraftment,patients undergoing HSCT; Day 11,0.33
same,neutrophil count above baseline,"patients undergoing HSCT; Day 11, control group 11%",33 % above baseline
same,Probability of neutrophil engraftment,patients undergoing HSCT; Day 12,0.44
same,Probability of neutrophil engraftment,patients undergoing HSCT; Day 13,0.67
same,Probability of neutrophil engraftment,patients undergoing HSCT; Day 14,0.89
same,Probability of neutrophil engraftment,patients undergoing HSCT; Day 15,1.00
same,neutrophil count above baseline,"patients undergoing HSCT; Day 15, control group 48%",100 % above baseline
same,Probability of neutrophil engraftment,patients undergoing HSCT; Day 16,1.00
same,Probability of neutrophil engraftment,patients undergoing HSCT; Day 17,1.00
same,Probability of neutrophil engraftment,patients undergoing HSCT; Day 18,1.00
same,Probability of neutrophil engraftment,patients undergoing HSCT; Day 19,1.00
same,Probability of neutrophil engraftment,patients undergoing HSCT; Day 20,1.00
same,Probability of neutrophil engraftment,patients undergoing HSCT; Day 21,1.00
same,Probability of neutrophil engraftment,patients undergoing HSCT; Day 22,1.00
same,Probability of neutrophil engraftment,patients undergoing HSCT; Day 23,1.00
same,speed of engraftment vs control group,"patients undergoing HSCT; FIG. 1 and Table 1, patients treated with KRP203",engrafted much faster than the control group
